In paper PMC10235067, “Increased renal elimination of endogenous and synthetic pyrimidine nucleosides in concentrative nucleoside transporter 1 deficient mice” (Nature Communications, 2023):
Values joined by “and” are separate entries in the source; they are usually repeats but may differ in a detail not shown here. Equal entries are not always repeated. Structures can show the parent of a compound that is named as a salt.

Assay: Gemcitabine plasma pharmacokinetics in Slc28a1+/+ and Slc28a1-/- mice
Details: for half-life: T1/2 (terminal half-life); for Vd: Vss
[1] = Gemcitabine in plasma, KO mice, iv gemcitabine 50mg/kg, per mouse
[2] = Gemcitabine in plasma, WT mice, iv gemcitabine 50mg/kg, per mouse
[3] = female, mouse, plasma, iv, 50 mg/kg, Slc28a1+/+ mice, plasma, single i.v. dFdC 50 mg/kg
[4] = female, mouse, plasma, iv, 50 mg/kg, Slc28a1-/- mice, single i.v. dFdC 50 mg/kg

SMILES: Nc1ccn([C@@H]2O[C@H](CO)[C@@H](O)C2(F)F)c(=O)n1 [dFdC, Gemcitabine hydrochloride, reference compound]
- Cl_pred [1]: 1090.62 mL/min/kg and 746.095 mL/min/kg and 1290.14 mL/min/kg and 969.932 mL/min/kg and 755.617 mL/min/kg and 623.084 mL/min/kg
- Clast [1]: 24.8237 ng/mL and 27.6006 ng/mL and 29.5353 ng/mL and 24.934 ng/mL and 28.2215 ng/mL and 23.0093 ng/mL
- Clast_pred [1]: 24.8933 ng/mL and 27.6326 ng/mL and 17.7456 ng/mL and 8.289 ng/mL and 12.8177 ng/mL and 22.4033 ng/mL
- Cmax_D [1]: 41.5984 kg·ng/mL/mg and 55.7076 kg·ng/mL/mg and 53.2658 kg·ng/mL/mg and 59.6169 kg·ng/mL/mg and 79.356 kg·ng/mL/mg and 84.6224 kg·ng/mL/mg
- HL_Lambda_z [1]: 303.191 min and 463.2 min and 8.504 min and 40.9198 min and 7.338 min and 145.3 min
- Lambda_z [1]: 0.002286 min⁻¹ and 0.001496 min⁻¹ and 0.08151 min⁻¹ and 0.01694 min⁻¹ and 0.09446 min⁻¹ and 0.00477 min⁻¹
- MRTINF_obs [1]: 141.603 min and 225.512 min and 8.15 min and 26.989 min and 6.943 min and 27.8346 min
- MRTINF_pred [1]: 141.879 min and 225.692 min and 7.911 min and 21.8034 min and 6.786 min and 27.3569 min
- MRTlast [1]: 12.4456 min and 11.7249 min and 7.547 min and 19.1465 min and 6.655 min and 8.568 min
- Tlast [1]: 120 min and 60 min and 240 min
- Tmax [1]: 5 min
- Vss_obs [1]: 154.537 L/kg and 168.308 L/kg and 10.4759 L/kg and 25.6879 L/kg and 5.23323 L/kg and 17.3159 L/kg
- Vss_pred [1]: 154.735 L/kg and 168.388 L/kg and 10.2063 L/kg and 21.1478 L/kg and 5.12762 L/kg and 17.0456 L/kg
- Vz_obs [1]: 477.366 L/kg and 498.742 L/kg and 15.7693 L/kg and 56.1887 L/kg and 7.97936 L/kg and 130.407 L/kg
- Vz_pred [1]: 477.049 L/kg and 498.582 L/kg and 15.8281 L/kg and 57.2597 L/kg and 7.99903 L/kg and 130.613 L/kg
- AUCINF_D_obs [2]: 1342.37 kg·ng·min/mL/mg and 2003.95 kg·ng·min/mL/mg and 1404.16 kg·ng·min/mL/mg and 1832.16 kg·ng·min/mL/mg and 1677.59 kg·ng·min/mL/mg and 1947.35 kg·ng·min/mL/mg
- AUCINF_D_pred [2]: 1351.51 kg·ng·min/mL/mg and 2009.55 kg·ng·min/mL/mg and 1397.88 kg·ng·min/mL/mg and 1826.34 kg·ng·min/mL/mg and 1669.05 kg·ng·min/mL/mg and 1936.73 kg·ng·min/mL/mg
- AUCINF_obs [2]: 100198 ng·min/mL and 70207.8 ng·min/mL and 91608.1 ng·min/mL and 83879.3 ng·min/mL and 97367.3 ng·min/mL
- AUCINF_pred [2]: 100478 ng·min/mL and 69893.8 ng·min/mL and 91317 ng·min/mL and 83452.5 ng·min/mL and 96836.3 ng·min/mL
- AUC_%Back_Ext_obs [2]: 12.8582% and 20.8763% and 29.2762% and 32.2576% and 32.4305% and 25.1142%
- AUC_%Back_Ext_pred [2]: 12.7713% and 20.8181% and 29.4077% and 32.3604% and 32.5963% and 25.252%
- AUC_%Extrap_obs [2]: 9.702% and 18.5437% and 0.7839% and 0.5327% and 0.8134% and 0.9221%
- AUC_%Extrap_pred [2]: 10.3129% and 18.7708% and 0.3382% and 0.2157% and 0.3062% and 0.3788%
- AUCall [2]: 81617.2 ng·min/mL and 71149.3 ng·min/mL and 92539.9 ng·min/mL and 85061.6 ng·min/mL and 98831 ng·min/mL
- AUClast [2]: 81617.2 ng·min/mL and 69657.4 ng·min/mL and 91120.1 ng·min/mL and 83197 ng·min/mL and 96469.4 ng·min/mL
- AUClast_D [2]: 1212.13 kg·ng·min/mL/mg and 1632.34 kg·ng·min/mL/mg and 1393.15 kg·ng·min/mL/mg and 1822.4 kg·ng·min/mL/mg and 1663.94 kg·ng·min/mL/mg and 1929.39 kg·ng·min/mL/mg
- AUMCINF_obs [2]: 5069956 min*min*ng/mL and 20471433 min*min*ng/mL and 1064873 min*min*ng/mL and 1254821 min*min*ng/mL and 1108567 min*min*ng/mL and 1728699 min*min*ng/mL
- AUMCINF_pred [2]: 5292862 min*min*ng/mL and 20755711 min*min*ng/mL and 1020250 min*min*ng/mL and 1213897 min*min*ng/mL and 1047980 min*min*ng/mL and 1652866 min*min*ng/mL
- AUMC_%Extrap_obs [2]: 62.651% and 92.1199% and 7.346% and 5.469% and 8.737% and 7.417%
- AUMC_%Extrap_pred [2]: 64.2239% and 92.2278% and 3.293% and 2.282% and 3.461% and 3.17%
- AUMClast [2]: 1893578 min*min*ng/mL and 1613171 min*min*ng/mL and 986649 min*min*ng/mL and 1186197 min*min*ng/mL and 1011712 min*min*ng/mL and 1600474 min*min*ng/mL
- C0 [2]: 1738.74 ng/mL and 4426.87 ng/mL and 4597.66 ng/mL and 7279.69 ng/mL and 6681.38 ng/mL and 5877.84 ng/mL
- Cl_obs [2]: 499.014 mL/min/kg and 712.172 mL/min/kg and 545.803 mL/min/kg and 596.095 mL/min/kg and 513.519 mL/min/kg
- Cl_pred [2]: 739.914 mL/min/kg and 497.623 mL/min/kg and 715.371 mL/min/kg and 547.543 mL/min/kg and 599.143 mL/min/kg and 516.335 mL/min/kg
- Clast [2]: 26.282 ng/mL and 23.9761 ng/mL and 24.8646 ng/mL and 23.6637 ng/mL and 31.0775 ng/mL and 39.3598 ng/mL
- Clast_pred [2]: 28.1263 ng/mL and 24.3375 ng/mL and 10.6806 ng/mL and 9.552 ng/mL and 11.6372 ng/mL and 16.0822 ng/mL
- Cmax_D [2]: 35.2165 kg·ng/mL/mg and 78.8031 kg·ng/mL/mg and 72.4804 kg·ng/mL/mg and 90.8107 kg·ng/mL/mg and 83.992 kg·ng/mL/mg and 78.0677 kg·ng/mL/mg
- HL_Lambda_z [2]: 171.744 min and 537.158 min and 15.3422 min and 14.2945 min and 15.2178 min and 15.8118 min
- Lambda_z [2]: 0.004036 min⁻¹ and 0.00129 min⁻¹ and 0.04518 min⁻¹ and 0.04849 min⁻¹ and 0.04555 min⁻¹ and 0.04384 min⁻¹
- MRTINF_obs [2]: 75.5375 min and 204.311 min and 15.1675 min and 13.6977 min and 13.2162 min and 17.7544 min
- MRTINF_pred [2]: 78.3253 min and 206.57 min and 14.5971 min and 13.2932 min and 12.5578 min and 17.0687 min
- MRTlast [2]: 31.2438 min and 19.7651 min and 14.1643 min and 13.018 min and 12.1604 min and 16.5905 min
- Tlast [2]: 240 min and 120 min
- Tmax [2]: 15 min
- Vss_obs [2]: 56.2718 L/kg and 101.954 L/kg and 10.8018 L/kg and 7.47626 L/kg and 7.87812 L/kg and 9.11723 L/kg
- Vss_pred [2]: 57.954 L/kg and 102.794 L/kg and 10.4424 L/kg and 7.27861 L/kg and 7.52393 L/kg and 8.81315 L/kg
- Vz_obs [2]: 184.58 L/kg and 386.714 L/kg and 15.7633 L/kg and 11.2559 L/kg and 13.087 L/kg and 11.7142 L/kg
- Vz_pred [2]: 183.332 L/kg and 385.636 L/kg and 15.8341 L/kg and 11.2918 L/kg and 13.154 L/kg and 11.7784 L/kg
- AUC (Last) (Slc28a1+/+ mice, plasma, single i.v. dFdC 50 mg/kg): 81307.3 ± 4123.2 ng x min/mL and 81307 ng x min/mL
- AUC (Last) (Slc28a1-/- mice, plasma, single i.v. dFdC 50 mg/kg): 52203.2 ± 3611.3 ng x min/mL and 52203 ng x min/mL
- CL (systemic clearance) (Slc28a1-/- mice, single i.v. dFdC 50 mg/kg): 950 mL/min/kg
- concentration at 10 min (female, mouse, plasma, intravenous, 50 mg/kg, Cp (Gemcitabine), KO mice, single iv gemcitabine 50mg/kg, 10 min): 1940 ng/mL
- concentration at 60 min (female, mouse, plasma, intravenous, 50 mg/kg, Cp (Gemcitabine), KO mice, single iv gemcitabine 50mg/kg, 60 min): 28.8 ng/mL
- AUC(0-inf) (female, mouse, plasma, iv, 50 mg/kg, AUCINF_obs, Gemcitabine in plasma, WT mice, iv gemcitabine 50mg/kg, per mouse): 1120 ng·h/mL
- AUC(0-inf) (female, mouse, plasma, iv, 50 mg/kg, AUCINF_pred, Gemcitabine in plasma, WT mice, iv gemcitabine 50mg/kg, per mouse): 1130 ng·h/mL
- AUC (female, mouse, plasma, iv, 50 mg/kg, AUCall, Gemcitabine in plasma, WT mice, iv gemcitabine 50mg/kg, per mouse): 1010 ng·h/mL
- AUC(0-t) (female, mouse, plasma, iv, 50 mg/kg, AUClast, Gemcitabine in plasma, WT mice, iv gemcitabine 50mg/kg, per mouse): 1010 ng·h/mL
- clearance (female, mouse, plasma, iv, 50 mg/kg, CL (systemic clearance), Slc28a1+/+ mice, single i.v. dFdC 50 mg/kg): 607 mL/min/kg
- clearance (female, mouse, plasma, iv, 50 mg/kg, CL (systemic clearance), Slc28a1-/- mice, single i.v. dFdC 50 mg/kg): 951 ± 167 mL/min/kg
- clearance (female, mouse, plasma, iv, 50 mg/kg, Cl_obs, Gemcitabine in plasma, WT mice, iv gemcitabine 50mg/kg, per mouse): 745 mL/min/kg
- Cmax [3]: 3650 ± 408 ng/mL
- Cmax [4]: 3120 ± 335 ng/mL
- half-life [3]: 13.6 ± 0.67 min
- half-life [4]: 11.5 ± 0.81 min
- Tmax (female, mouse, plasma, iv, 50 mg/kg, Tmax, Slc28a1+/+ mice, plasma, single i.v. dFdC 50 mg/kg): ~5 min
- Tmax (female, mouse, plasma, iv, 50 mg/kg, Tmax, Slc28a1-/- mice, single i.v. dFdC 50 mg/kg): ~5 min
- Vd (female, mouse, plasma, iv, 50 mg/kg, Slc28a1+/+ mice, single i.v. dFdC 50 mg/kg): 14.4 L/kg
- Vd [4]: 14.1 L/kg
- Cp (Gemcitabine) (plasma, KO mice, single iv gemcitabine 50mg/kg, 10 min): 2505.77 ng/mL and 1699.01 ng/mL and 1487.77 ng/mL and 1743.2 ng/mL and 1817.05 ng/mL
- Cp (Gemcitabine) (plasma, KO mice, single iv gemcitabine 50mg/kg, 60 min): 30.3338 ng/mL and 29.5353 ng/mL and 27.3213 ng/mL and 28.2215 ng/mL and 27.5324 ng/mL
